# From ChEMBL document CHEMBL4699460, “Integrating DNA-encoded chemical libraries with virtual combinatorial library screening: Optimizing a PARP10 inhibitor” (Bioorg Med Chem Lett, 2020)
# Key:
# [1] = biological target: T1, Poly [ADP-ribose] polymerase tankyrase-1 (Homo sapiens) (UniProt O95271); experiment: (§1) Inhibition of N-terminal GST-tagged human TNKS1 (1001 to 1327 residues) expressed in baculovirus-infected Sf9 cells assessed as reduction in NAD+-dependent ADP ribosylation using histone as substrate at 10 uM incubated for 1 hr in presence of biotinylated NAD+ and activated DNA by chemiluminescence based microplate reader assay relative to control
# T1 sequence (whole entry): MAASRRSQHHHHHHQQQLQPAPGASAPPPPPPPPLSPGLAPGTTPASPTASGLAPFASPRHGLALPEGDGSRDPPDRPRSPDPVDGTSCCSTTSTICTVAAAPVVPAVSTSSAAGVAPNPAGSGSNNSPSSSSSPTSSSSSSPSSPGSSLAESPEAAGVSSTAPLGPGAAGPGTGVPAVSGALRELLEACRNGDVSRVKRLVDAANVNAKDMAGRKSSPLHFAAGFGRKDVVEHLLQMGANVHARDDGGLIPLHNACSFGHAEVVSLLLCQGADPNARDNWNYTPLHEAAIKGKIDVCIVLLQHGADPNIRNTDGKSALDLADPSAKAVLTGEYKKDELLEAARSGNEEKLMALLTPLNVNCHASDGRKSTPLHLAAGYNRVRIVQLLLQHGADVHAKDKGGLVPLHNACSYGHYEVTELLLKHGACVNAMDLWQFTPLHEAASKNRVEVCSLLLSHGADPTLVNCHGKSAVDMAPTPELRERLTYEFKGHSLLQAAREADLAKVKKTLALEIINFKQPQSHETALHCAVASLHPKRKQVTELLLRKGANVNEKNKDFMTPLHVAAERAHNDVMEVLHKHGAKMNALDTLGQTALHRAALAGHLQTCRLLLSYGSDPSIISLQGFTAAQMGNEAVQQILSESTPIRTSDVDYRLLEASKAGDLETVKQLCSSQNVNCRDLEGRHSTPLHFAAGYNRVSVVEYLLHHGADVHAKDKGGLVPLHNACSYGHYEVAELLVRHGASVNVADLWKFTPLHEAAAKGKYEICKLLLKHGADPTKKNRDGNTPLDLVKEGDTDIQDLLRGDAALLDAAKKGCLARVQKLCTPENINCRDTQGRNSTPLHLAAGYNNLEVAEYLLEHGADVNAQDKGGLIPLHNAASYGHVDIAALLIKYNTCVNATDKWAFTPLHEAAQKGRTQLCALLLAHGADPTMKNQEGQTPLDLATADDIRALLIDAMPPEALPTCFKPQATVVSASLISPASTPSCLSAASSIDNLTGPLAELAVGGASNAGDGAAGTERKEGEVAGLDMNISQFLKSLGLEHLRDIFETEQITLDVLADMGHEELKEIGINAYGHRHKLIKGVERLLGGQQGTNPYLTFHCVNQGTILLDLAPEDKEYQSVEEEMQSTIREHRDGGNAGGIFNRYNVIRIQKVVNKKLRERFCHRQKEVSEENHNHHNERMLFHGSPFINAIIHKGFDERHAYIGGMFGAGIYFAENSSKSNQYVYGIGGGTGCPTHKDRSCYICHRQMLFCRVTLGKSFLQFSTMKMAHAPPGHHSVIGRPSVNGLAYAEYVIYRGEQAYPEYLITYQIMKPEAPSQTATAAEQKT
# [2] = biological target: Protein mono-ADP-ribosyltransferase PARP6 (Homo sapiens) (UniProt Q2NL67); experiment: as §1, with “GST tagged full length” for “GST-tagged”, “PARP6” for “TNKS1 (1001 to 1327 residues)”, “baculovirus infected” for “baculovirus-infected”
# [3] = biological target: T2, Protein mono-ADP-ribosyltransferase PARP15 (Homo sapiens) (UniProt Q460N3); experiment: as §1, with “PARP15 (221” for “TNKS1 (1001”, “444” for “1327”, “Escherichia coli” for “baculovirus-infected Sf9 cells”
# T2 sequence (whole entry): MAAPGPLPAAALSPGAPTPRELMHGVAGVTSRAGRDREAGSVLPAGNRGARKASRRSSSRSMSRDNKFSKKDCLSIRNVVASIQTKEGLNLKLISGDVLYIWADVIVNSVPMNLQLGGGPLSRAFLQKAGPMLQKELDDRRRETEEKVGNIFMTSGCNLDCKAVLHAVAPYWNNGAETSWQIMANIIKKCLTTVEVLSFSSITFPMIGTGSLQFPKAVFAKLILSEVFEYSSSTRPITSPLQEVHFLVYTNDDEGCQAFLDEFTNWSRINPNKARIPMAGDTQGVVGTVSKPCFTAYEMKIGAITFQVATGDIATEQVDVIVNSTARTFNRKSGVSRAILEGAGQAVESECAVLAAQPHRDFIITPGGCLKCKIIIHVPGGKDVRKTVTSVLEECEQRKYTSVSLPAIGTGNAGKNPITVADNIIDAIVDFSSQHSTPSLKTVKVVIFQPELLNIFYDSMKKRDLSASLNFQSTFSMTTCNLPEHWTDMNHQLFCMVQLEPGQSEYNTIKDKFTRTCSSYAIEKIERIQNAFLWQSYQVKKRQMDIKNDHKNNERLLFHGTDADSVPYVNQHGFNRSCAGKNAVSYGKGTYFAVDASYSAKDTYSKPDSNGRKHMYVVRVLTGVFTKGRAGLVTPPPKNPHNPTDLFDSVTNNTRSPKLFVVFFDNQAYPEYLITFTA
# Chain of Protein mono-ADP-ribosyltransferase PARP6 (Homo sapiens) (Q2NL67 whole entry, the tested form may be a part): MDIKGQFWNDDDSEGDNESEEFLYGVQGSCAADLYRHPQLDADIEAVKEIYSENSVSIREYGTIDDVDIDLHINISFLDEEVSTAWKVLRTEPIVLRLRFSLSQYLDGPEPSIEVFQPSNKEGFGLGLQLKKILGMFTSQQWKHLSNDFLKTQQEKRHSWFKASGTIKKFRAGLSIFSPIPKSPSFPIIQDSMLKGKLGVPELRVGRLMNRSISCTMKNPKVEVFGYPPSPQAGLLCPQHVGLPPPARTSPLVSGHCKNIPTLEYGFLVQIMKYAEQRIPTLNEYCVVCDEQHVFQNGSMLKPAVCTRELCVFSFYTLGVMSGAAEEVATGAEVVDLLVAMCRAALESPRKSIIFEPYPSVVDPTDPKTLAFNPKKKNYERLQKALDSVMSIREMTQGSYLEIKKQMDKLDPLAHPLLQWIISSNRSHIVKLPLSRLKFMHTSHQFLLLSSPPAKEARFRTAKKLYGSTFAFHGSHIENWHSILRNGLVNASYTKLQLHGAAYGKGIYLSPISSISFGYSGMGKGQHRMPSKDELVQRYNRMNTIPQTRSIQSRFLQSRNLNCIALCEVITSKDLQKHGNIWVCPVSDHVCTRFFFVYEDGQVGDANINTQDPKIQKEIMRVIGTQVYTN
inhibition [1],inhibition [2],inhibition [3],SMILES
> 50%,0%,10%,CC1(CNC(=O)COc2cccc3c2CCCC3=O)CCN(C(=O)CCc2nc3ccccc3[nH]c2=O)CC1
< 25%,< 25%,< 25%,CNC(=O)[C@H](CNC(=O)CCc1nc2ccccc2[nH]c1=O)NC(=O)c1ccc2c(c1)CCCC2=O
